This is an account of results in PMC11724923 (Nature Communications, 2025).

The target in data set [1] is T1, PRDX1 (Homo sapiens, UniProt Q06830).
T1 sequence (Q06830 1-199): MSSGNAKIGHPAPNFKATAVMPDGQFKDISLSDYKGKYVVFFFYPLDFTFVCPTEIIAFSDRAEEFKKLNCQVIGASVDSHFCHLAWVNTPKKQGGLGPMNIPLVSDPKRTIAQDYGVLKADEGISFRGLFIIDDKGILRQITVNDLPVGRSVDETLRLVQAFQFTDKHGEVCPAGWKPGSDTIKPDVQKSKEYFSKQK
Put plainly: SPR with sodium palmitate. In kind it is binding.

Data set [2] concerns the target T1, PRDX1. The experiment in a line: SPR. In kind it is binding.
Data set [3] deals with the molecule itself. Put plainly: crystal structure.

Consider `CCCCCCCCCCCCCCCC(=O)O` [PA, palmitic acid], for which the Kd in data set [1] worked out at 75.3 ± 4.5 µM.
In turn, `O=C(/C=C/c1ccc(O)c(O)c1)O[C@H](Cc1ccc(O)c(O)c1)C(=O)O` [RA, rosmarinic acid] had a Kd in data set [2] of 375.7 ± 2.5 nM.

B1: PRDX1^C52SC83S (aa 1-175) (enzyme, human, UniProt Q06830 1-175, looked up)
chain: MSSGNAKIGHPAPNFKATAVMPDGQFKDISLSDYKGKYVVFFFYPLDFTFVSPTEIIAFSDRAEEFKKLNCQVIGASVDSHFSHLAWVNTPKKQGGLGPMNIPLVSDPKRTIAQDYGVLKADEGISFRGLFIIDDKGILRQITVNDLPVGRSVDETLRLVQAFQFTDKHGEVCPA
For B1, the binding result in data set [3] is on record as “binds”.
